Series [1] is described as follows: Solubility noted during palladium scavenging work. In kind it is physicochemical. Particulars: qualitative; precluded use of common solid-supported palladium scavenging agents.
A short description of series [2]: Kinetic slurry study of the free base in various solvent systems; XRPD and equilibrium solubilities give relative polymorph stability. In kind it is physicochemical. The following applies: slurries in various solvent systems, temperatures and water amounts; solids isolated at 2, 4, 6, 24, 72 hours. Here is the method:
For example, the free base of (5) was slurried at ambient temperature in various solvent systems, at various temperatures, with varying amounts of water. In each solvent condition, solids were isolated for XRPD analysis at 2, 4, 6, 24, and 72 hours. Equilibrium solubilities in these solvents were then calculated and used to identify ethanol for the final slurry step. The difference in free energy between solid phases with the same composition (i.e., polymorphs, hydrates, or solvates) is directly proportional to their relative solubilities.

With `Cc1cc(Nc2cc(N)ncn2)c(=O)n2c1C(=O)NC21CCCCC1` [Compound 5, 6′-((6-aminopyrimidin-4-yl)amino)-8′-methyl-2′H-spiro[cyclohexane-1,3′-imidazo[1,5-a]pyridine]-1′,5′-dione], the solubility entry in series [1] was “Low”.

For the compound `Cc1cc(Nc2cc(N)ncn2)c(=O)n2c1C(=O)NC21CCCCC1` [Form A, 6′-((6-aminopyrimidin-4-yl)amino)-8′-methyl-2′H-spiro[cyclohexane-1,3′-imidazo[1,5-a]pyridine]-1′,5′-dione], in series [2], the “thermodynamic stability of polymorph” value was “most thermodynamically stable polymorph”.

The values are drawn from patent US11952375B2, “Crystalline forms of Mnk inhibitors” (eFFECTOR Therapeutics Inc., priority 2018, dated 2024).
